# Measured values taken from ChEMBL document CHEMBL1629478, “Novel alkyl- and arylcarbamate derivatives with N-benzylpiperidine and N-benzylpiperazine moieties as cholinesterases inhibitors” (Eur J Med Chem, 2010).
# Active and inactive are the calls of the source. The rule behind the calls is not given here.
# How the values were obtained:
# [1] = biological target: Cholinesterase (Equus caballus) (UniProt P81908); assay: Inhibition of horse serum BChE at 100 uM preincubated for 5 mins by Ellman's method
# Chain of Cholinesterase (Equus caballus) (P81908 whole entry): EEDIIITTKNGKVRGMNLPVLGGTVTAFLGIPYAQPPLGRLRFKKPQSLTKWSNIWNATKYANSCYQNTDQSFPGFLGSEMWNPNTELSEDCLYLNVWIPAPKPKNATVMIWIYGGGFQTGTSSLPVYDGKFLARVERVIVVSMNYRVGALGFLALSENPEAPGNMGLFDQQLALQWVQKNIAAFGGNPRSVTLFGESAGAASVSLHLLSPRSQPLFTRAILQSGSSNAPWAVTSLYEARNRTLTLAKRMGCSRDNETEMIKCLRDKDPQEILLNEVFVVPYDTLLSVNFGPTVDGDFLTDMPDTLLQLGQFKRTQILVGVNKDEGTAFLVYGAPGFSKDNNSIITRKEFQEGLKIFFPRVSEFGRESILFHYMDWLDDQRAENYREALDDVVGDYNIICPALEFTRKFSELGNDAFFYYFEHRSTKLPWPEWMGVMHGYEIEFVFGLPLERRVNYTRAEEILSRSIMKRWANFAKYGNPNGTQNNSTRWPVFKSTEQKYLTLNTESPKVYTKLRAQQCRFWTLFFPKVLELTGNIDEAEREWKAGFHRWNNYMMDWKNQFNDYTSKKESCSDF
# [2] = biological target: Acetylcholinesterase (Electrophorus electricus) (UniProt O42275); assay: Inhibition of electric eel AChE at 100 uM preincubated for 5 mins by Ellman's method
# Chain of Acetylcholinesterase (Electrophorus electricus) (O42275 24-633 limits assumed): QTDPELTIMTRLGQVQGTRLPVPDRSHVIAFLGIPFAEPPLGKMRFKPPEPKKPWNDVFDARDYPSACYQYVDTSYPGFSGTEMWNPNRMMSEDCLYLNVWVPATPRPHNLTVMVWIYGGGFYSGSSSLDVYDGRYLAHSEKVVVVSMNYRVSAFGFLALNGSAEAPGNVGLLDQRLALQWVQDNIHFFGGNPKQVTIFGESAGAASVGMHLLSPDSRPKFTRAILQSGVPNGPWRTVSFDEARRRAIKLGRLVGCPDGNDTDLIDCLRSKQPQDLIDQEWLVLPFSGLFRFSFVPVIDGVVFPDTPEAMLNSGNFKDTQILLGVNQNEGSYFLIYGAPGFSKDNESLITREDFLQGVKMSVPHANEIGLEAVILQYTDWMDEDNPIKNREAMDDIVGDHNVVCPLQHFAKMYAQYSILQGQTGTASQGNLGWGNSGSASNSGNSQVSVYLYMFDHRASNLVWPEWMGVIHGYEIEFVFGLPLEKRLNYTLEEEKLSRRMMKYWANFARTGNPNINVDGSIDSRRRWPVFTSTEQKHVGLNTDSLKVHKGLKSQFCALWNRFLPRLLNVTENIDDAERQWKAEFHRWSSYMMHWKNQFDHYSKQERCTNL
# Cholinesterase = Cholinesterase (Equus caballus, UniProt P81908)
# Chain of Cholinesterase (P81908 whole entry): as the sequence (P81908 whole entry) above
# Description: Inhibition of horse serum BChE preincubated for 5 mins by Ellman's method
# [3] = biological target: Acetylcholinesterase (Electrophorus electricus) (UniProt O42275); assay: Non-competitive inhibition of electric eel AChE by Lineweaver-Burk plot analysis
# [4] = biological target: Cholinesterase (Equus caballus) (UniProt P81908); assay: Mixed-type inhibition of horse serum BChE by Lineweaver-Burk plot analysis
SMILES,inhibition [1] [%],inhibition [2],IC50 (Cholinesterase) [µM],inhibition [3],inhibition [4]
O=C(Cc1ccc(O)cc1)NC1CCN(Cc2ccccc2)CC1,45.6,15.2%,,,
CCNC(=O)Oc1ccc(CC(=O)N2CCN(Cc3ccccc3)CC2)cc1,83.4,inactive,43.7,,
CCCNC(=O)Oc1ccc(CC(=O)N2CCN(Cc3ccccc3)CC2)cc1,88.3,inactive,32.4,,
CN(C)C(=O)Oc1cccc(CC(=O)NC2CCN(Cc3ccccc3)CC2)c1,82.1,50.5%,21.9,Active,Active
CN(C)C(=O)Oc1cccc(CC(=O)N2CCN(Cc3ccccc3)CC2)c1,79,inactive,23.4,,
CC(C)NC(=O)Oc1ccc(CC(=O)N2CCN(Cc3ccccc3)CC2)cc1,72.2,inactive,52.5,,
CCCCNC(=O)Oc1ccc(CC(=O)NC2CCN(Cc3ccccc3)CC2)cc1,63.4,43.7%,11.7,,
O=C(Cc1ccc(O)cc1)N1CCN(Cc2ccccc2)CC1,45.3,inactive,,,
O=C(Cc1cccc(O)c1)N1CCN(Cc2ccccc2)CC1,31.5,inactive,,,
Cc1ccccc1NC(=O)Oc1ccc(CC(=O)NC2CCN(Cc3ccccc3)CC2)cc1,46.9,24.7%,,,
CCCCNC(=O)Oc1cccc(CC(=O)N2CCN(Cc3ccccc3)CC2)c1,92.7,inactive,10,,
CCNC(=O)Oc1cccc(CC(=O)NC2CCN(Cc3ccccc3)CC2)c1,68.6,28.5%,37.2,,
CC(C)NC(=O)Oc1ccc(CC(=O)NC2CCN(Cc3ccccc3)CC2)cc1,63.1,19.2%,18.2,,
CN(C)C(=O)Oc1ccc(CC(=O)NC2CCN(Cc3ccccc3)CC2)cc1,89.8,46.2%,8.91,,
CCCCNC(=O)Oc1cccc(CC(=O)NC2CCN(Cc3ccccc3)CC2)c1,92,39.9%,5.75,,
CCCCNC(=O)Oc1ccc(CC(=O)N2CCN(Cc3ccccc3)CC2)cc1,83.1,inactive,16.6,,
CC(C)NC(=O)Oc1cccc(CC(=O)N2CCN(Cc3ccccc3)CC2)c1,77.7,inactive,35.5,,
CCNC(=O)Oc1cccc(CC(=O)N2CCN(Cc3ccccc3)CC2)c1,62.5,inactive,55,,
O=C(Cc1cccc(O)c1)NC1CCN(Cc2ccccc2)CC1,49.8,38.1%,,,
CCNC(=O)Oc1ccc(CC(=O)NC2CCN(Cc3ccccc3)CC2)cc1,90.4,23.4%,10.7,,
CN(C)C(=O)Oc1ccc(CC(=O)N2CCN(Cc3ccccc3)CC2)cc1,32.5,inactive,,,
CC(C)NC(=O)Oc1cccc(CC(=O)NC2CCN(Cc3ccccc3)CC2)c1,72.2,34.9%,29.5,,
CCCNC(=O)Oc1ccc(CC(=O)NC2CCN(Cc3ccccc3)CC2)cc1,95.1,33.8%,9.33,,
